# Reference: US10183030B2, “17α,21-diesters of cortexolone for use in the treatment of tumors” (COSMO TECHNOLOGIES LTD., priority 2014, dated 2019)
# Assays:
# [1] = tested on: MiaPaca-2 xenograft tumor; test: MiaPaca2 human pancreatic tumor xenograft in nude mice, subcutaneous treatment; format: in vivo, mouse
# Experimental: The test was carried out comparing the anti-tumor activity of cortexolone 17α-benzoate at two different dosages (8.0 mg/kg, corresponding approximately at 230 μM, and 40 mg/kg, corresponding approximately at 1150 μM), versus the vehicle (i.e. 0.4% (v/v) tween 80 and 0.5% (w/v) carboxymethylcellulose in normal saline) and versus the comparator Cyproterone Acetate at two different dosages (7.4 mg/kg and 37 mg/kg).
# 1×10^6 MiaPaca-2 cells suspended in matrigel were subcutaneously injected into 6 week old athymic nude mice.
# The treatment with the tested compounds, with the vehicle and with the comparative compound, was initiated after the tumor volume has reached 50 mm^3 after transplantation. All compounds were injected 100 μL/mouse subcutaneously of low dose solution (approximately 230 μM) or 100 μL/mouse of high dose solution (approximately 1150 μM) of cortexolone 17α-benzoate, vehicle and cyproterone acetate, respectively. Compounds and controls were administered subcutaneously daily for 28 days.
# Tumors were measured every 4 days with a digital caliper.
# The results are plotted in FIG. 1 as average change in tumor volume relative to the start of treatment. Tumor volume was calculated according to the formula 0.5236(r1)^2(r2) where r1<r2.
# The test was carried out comparing the anti-tumor activity of cortexolone 17α-valerate-21-propionate (CB-03-10) at two different dosages (approximately 8.6 mg/kg and 43 mg/kg) versus the vehicle (i.e. 0.4% (v/v) tween 80 and 0.5% (w/v) carboxymethylcellulose in normal saline) and versus the comparator Cyproterone Acetate at two different dosages (7.4 mg/kg and 37 mg/kg).
# The treatment with the tested compound, with the vehicle and with the comparative compound was initiated after the tumor has reached a volume of 50 mm^3 after implantation, injecting subcutaneously 100 μL/mouse of low dose solution (approximately 230 μM) or 100 μL/mouse of high dose solution (approximately 1150 μM) of cortexolone 17α-valerate-21-propionate (CB-03-10), vehicle and cyproterone acetate, respectively. Compounds and controls were administered subcutaneously daily for 28 days.
# The results are plotted in FIG. 2 as average change in tumor volume relative to the start of treatment. Tumor volume was calculated according to the formula 0.5236(r1)^2(r2) where r1<r2.
# CPA a well-known anti-androgen was used as control. Briefly 1×10^6 MiaPaca2 cells suspended in matrigel were subcutaneously (SC) injected into 6 week old male athymic nude mice. Tumors were measured every 4 days with a digital caliper. Tumor volume was calculated according to the formula: 0.5236(r1) 2(r2) where r1<r2. Treatment with CB-03-10 and controls compounds was initiated after the tumor had reached 50 mm^3. Compounds diluted in DMSO/2-hydroxypropyl b-cyclodextrin (vehicle) were injected subcutaneously (SC) daily (100 μL/mouse) at the concentration of 40 mg/Kg daily for 28 consecutive days.
# MiaPaca2 cells = test: Annexin V / propidium iodide apoptosis assay; format: cell-based, human; conditions: 24 hours, control 11%
# Experimental: CB-03-10 was evaluated to determine if the mechanism of cytotoxicity on cancer cell lines was mediated by apoptosis and cell cycle arrest. Cancer cell lines were seeded in 6-well flat bottom plates. After 24 hours test compounds or DMSO vehicle (negative control) were added. After an additional 24 hours cells were scraped and stained with fluorescein conjugated Annexin V and propidium iodide and analyzed by flow cytometry.
# [2] = Example 22, 40 mg/Kg SC daily for 28 days
structure (smiles),measurement,setting,value
"CCCCC(=O)O[C@]1(C(=O)COC(=O)CC)CC[C@H]2[C@@H]3CCC4=CC(=O)CC[C@]4(C)[C@H]3CC[C@@]21C [CB-03-10, cortexolone 17α-valerate-21-propionate]","pancreatic tumor size increase relative to the initial size, during the treatment period","[1]; Example 22, 40 mg/Kg SC daily for 28 consecutive days",less than 5 fold
same,Median survival,[1]; [2],70 days
same,tumor size increase 14 days after treatment was stopped,[1]; [2],6 fold
same,pancreatic tumor size increase relative to the start of treatment,"[1]; Examples 5 and 6, SC daily for 28 days, test compounds at high dose (approximately 1150 μM, 100 μL/mouse), Cyproterone Acetate treatment groups 7.4 and 37 mg/kg",less than 5 fold
same,"cells in apoptosis (early and late), total",MiaPaca2 cells,28%
